According to PubChem BioAssay (NCI):
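Exposure lasted 48 hours, with cells grown in 96-well plates and compounds tested at five concentrations. Definition used: TGI = concentration required for complete inhibition of growth.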

Tests used:
Experiment in all cases: inhibition of tumour cell growth, NCI panel, 48 h
[1] = system: A498 renal
[2] = system: SF-539 CNS
[3] = system: MDA-MB-435
[4] = system: MALME-3M melanoma
[5] = system: HT29 colon
[6] = system: OVCAR-8 ovarian
[7] = system: RPMI-8226 leukemia
[8] = system: HCT-116 colon
[9] = system: SN12C renal
[10] = system: NCI-H460 lung
[11] = system: K-562 leukemia
[12] = system: SK-MEL-28 melanoma
[13] = system: CCRF-CEM leukemia
[14] = system: BT-549 breast
[15] = system: EKVX NSCLC
[16] = system: RXF 393 renal
[17] = system: MCF7 breast
[18] = system: IGROV1 ovarian
[19] = system: LOX IMVI melanoma
[20] = system: HCC-2998 colon
[21] = system: MOLT-4 leukemia
[22] = system: COLO 205 colon
[23] = system: SR leukemia
[24] = system: A549 NSCLC
[25] = system: OVCAR-3 ovarian
[26] = system: SNB-75 CNS
[27] = system: 786-0 renal
[28] = system: MDA-MB-231 breast
[29] = system: SK-OV-3 ovarian
[30] = system: CAKI-1 renal
[31] = system: SK-MEL-5 melanoma
[32] = system: NCI-H522 lung
[33] = system: OVCAR-4 ovarian
[34] = system: NCI/ADR-RES ovarian
[35] = system: SF-295 CNS
[36] = system: UACC-62 melanoma
[37] = system: HOP-62 NSCLC
[38] = system: PC-3 prostate
[39] = system: SW-620 colon
[40] = system: T-47D breast
[41] = system: M14 melanoma
[42] = system: U251 CNS
[43] = system: HCT-15 colon
[44] = system: DU-145 prostate
[45] = system: HL-60(TB) leukemia
[46] = system: HS 578T breast
[47] = system: ACHN renal
[48] = system: UO-31 renal
[49] = system: MDA-N
[50] = system: NCI-H226 lung
[51] = system: OVCAR-5 ovarian
[52] = system: NCI-H23 lung
[53] = system: SK-MEL-2 melanoma
[54] = system: UACC-257 melanoma
[55] = system: SNB-19 CNS
[56] = system: HOP-92 NSCLC
[57] = system: SF-268 CNS
[58] = system: TK-10 renal
[59] = system: KM12 colon
[60] = system: SNB-78 CNS
[61] = system: DLD-1 colon
[62] = system: DMS 273 small cell lung
[63] = system: M19-MEL melanoma
[64] = system: KM20L2 colon
[65] = system: HOP-18 NSCLC
[66] = system: DMS 114 small cell lung
[67] = system: LXFL 529 NSCLC

Measured: TGI

Cc1cc(C)nc(NS(=O)(=O)c2ccc(Nc3c4ccccc4nc4ccc(C(=O)Nc5ccc(S(N)(=O)=O)cc5)cc34)cc2)n1
52.6 µM: [28]
73.5 µM: [14]
not listed: [60] | [61] | [62] | [63] | [64] | [65] | [66] | [67]
> 100 µM: all other assays above

CC1(c2cccc(C3CC4(CCC3=O)OCCCCO4)c2)OCCO1 (centres undefined)
not listed: [3] | [14] | [15] | [16] | [17] | [23] | [28] | [34] | [38] | [40] | [44] | [46] | [49] | [56]
> 100 µM: all other assays above

COc1ccc2c(c1)/C(=C\c1c(Cl)[nH]c3cc(C)c(OC)cc13)C(=O)N2
20.2 µM: [1]
13.4 µM: [35]
5.3 µM: [18]
20.4 µM: [30]
5.55 µM: [42]
17.3 µM: [47]
13.7 µM: [21] | [28]
8.45 µM: [19]
27.6 µM: [7]
> 100 µM: [50]
> 35.5 µM: [13]
5.63 µM: [41]
2.58 µM: [23]
1.24 µM: [2]
16.2 µM: [33]
15.9 µM: [36] | [58]
16.7 µM: [17]
5.69 µM: [22]
0.596 µM: [3]
19.2 µM: [4] | [48]
6.78 µM: [32]
5.06 µM: [59]
5.96 µM: [43]
14.1 µM: [51]
4.9 µM: [26]
13 µM: [27]
7.67 µM: [16]
7.27 µM: [5]
2.13 µM: [49]
40.5 µM: [40]
4.04 µM: [34]
18.5 µM: [53]
8.27 µM: [38]
7.95 µM: [14]
22.4 µM: [56]
2.9 µM: [52]
1.71 µM: [25]
6.19 µM: [20]
29 µM: [12]
20.6 µM: [54]
8.22 µM: [6]
5.98 µM: [44]
27.7 µM: [11]
10.7 µM: [9]
8.7 µM: [10] | [31]
18.2 µM: [24]
8.77 µM: [57]
2.46 µM: [45]
> 40.1 µM: [39]
12.8 µM: [55]
16.5 µM: [15]
> 50.7 µM: [46]
3.07 µM: [29]
23 µM: [37]
6.36 µM: [8]

Nc1cc([N+](=O)[O-])ccc1C(=O)N1CCC[C@H]1CO
not listed: [20] | [25] | [31] | [37] | [41] | [51] | [60] | [61] | [62] | [63] | [64] | [65] | [66] | [67]
> 100 µM: all other assays above
